Consider six molecules from patent US6608071B2, “Isoquinoline derivatives with angiogenesis inhibiting activity” (Novartis AG, priority 1998, dated 2003).

System in one data set: not given
Experiment: not given
Settings: not given
As to `Cc1cc(C)cc(Nc2ncc(Cc3ccncc3)c3ccccc23)c1` [Example 1, 1-(3,5-Dimethylanilino)-4-[(pyridin-4-yl)-methyl]-isoquinoline], the melting point (commonly the temperature of the solid-liquid transition) is 156 to 158 °C.

As for `Clc1cccc(CNc2ncc(Cc3ccncc3)c3ccccc23)c1` [Example 132, 1-(3-Chlorobenzylamino)-4-[(pyridin-4-yl)-methyl]-isoquinoline], the melting point is 141 to 142 °C.

The target in another data set is T1, Flt-1 VEGF receptor tyrosine kinase (Homo sapiens, UniProt P17948).
T1 construct: 10 ng of the kinase domain of Flt-1
T1 sequence (P17948 827-1158 limits assumed): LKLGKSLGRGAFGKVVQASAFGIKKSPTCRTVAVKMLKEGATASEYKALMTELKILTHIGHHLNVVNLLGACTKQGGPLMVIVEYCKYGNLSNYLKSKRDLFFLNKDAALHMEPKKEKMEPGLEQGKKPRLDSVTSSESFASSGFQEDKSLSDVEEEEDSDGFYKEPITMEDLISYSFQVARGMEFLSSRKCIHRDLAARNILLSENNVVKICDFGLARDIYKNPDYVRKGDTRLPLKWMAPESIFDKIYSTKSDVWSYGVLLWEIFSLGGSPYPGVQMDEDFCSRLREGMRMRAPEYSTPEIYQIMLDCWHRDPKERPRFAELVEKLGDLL
As to the kind of experiment: Test for activity against Flt-1 VEGF receptor tyrosine kinase activity. It is filed as biochemical. The settings on record: kinase domain of Flt-1, poly(Glu,Tyr) 4:1, 8 μM [33P]-ATP, 15 minutes at room temperature. The procedure:
Test for activity against VEGF receptor tyrosine kinase activity: The test is carried out using Flt-1 VEGF receptor tyrosine kinase. In detail, the procedure is as follows: 30 μl of kinase solution (10 ng of the kinase domain of Flt-1, Shibuya et al., Oncogene 5, 519-524 (1990)) in 20 mM Tris-HCl pH 7.6, 3 mM manganese dichloride (MnCl2), 3 mM magnesium chloride (MgCl2) and 3 μg/ml of poly(Glu,Tyr) 4:1 (Sigma, Buchs, Switzerland), 8 μM [^33P]-ATP (0.2 μCi/batch), 1% dimethyl sulfoxide and from 0 to 50 μM of the test compound are incubated together for 15 minutes at room temperature. The reaction is then terminated by addition of 10 μl of 0.25M ethylenediamine tetraacetate (EDTA) pH 7. An aliquot of 20 μl is connected to a vacuum using a multichannel dispenser (LAB SYSTEMS, USA) on a PVDF (=polyvinyl difluoride) Immobilon P membrane (Millipore, USA), which is incorporated in a Millipore Microtiter filter manifold. When the liquid has been removed completely, the membrane is incubated 4 times in succession, in each case for 10 minutes, with shaking, in a washing bath containing 0.5% phosphoric acid (H3PO4), and is then mounted in a Hewlett Packard TopCount Manifold and, after addition of 10 μl of Microscint® (β-scintillation counter fluid; Packard, USA), the radioactivity is, measured. IC50 values are determined by linear regression analysis of the percentage values for the inhibition of each compound at three concentrations (generally 0.01, 0.1 and 1 μM). The inhibition values (IC50 with half-maximum inhibition as compared with a control without inhibitor of formula I) found are especially in the range of from 10 nmol/liter to 100 μmol/liter, more especially from 20 to 2000 nmol/liter.
The test is carried out using Fit-1 VEGF receptor tyrosine kinase, as described above. The IC50 values obtained are shown below, insofar as they were calculated accurately: […]
Consider `Cc1cc(C)cc(Nc2ncc(Cc3ccncc3)c3ccccc23)c1` [Example 1, 1-(3,5-Dimethylanilino)-4-[(pyridin-4-yl)-methyl]-isoquinoline], for which the IC50 (usually the point on the concentration scale where inhibition reaches its midpoint) was 802 nM.

Take `Clc1ccc(Nc2ncc(Cc3ccncc3)c3ccccc23)cc1` [Example 2]: half-maximal inhibition (IC50) required 346 nM.

For the molecule `FC(F)(F)c1cc(Br)cc(Nc2ncc(Cc3ccncc3)c3ccccc23)c1` [Example 3], the IC50 is more than 1000 nM.

Consider `FC(F)(F)c1cc(Nc2ncc(Cc3ccncc3)c3ccccc23)ccc1Cl` [Example 4], for which the IC50 was more than 1000 nM.

On to `Cc1cccc(Nc2ncc(Cc3ccncc3)c3ccccc23)c1` [Example 5], for which the IC50 was found to be 344 nM. That is a sub-micromolar value.
